These results are taken from patent US20070173490A1, “Novel solid forms of (4R)-1-[2-chloro-5-fluorobenzoyl)amino-3-methoxybenzoyl]-1,2,3,5- tetrahydro-spiro[4h-1-benzazepine-4,1'-[2]cyclopentene]-3'-carboxylic acid” (priority 2006, published 2007).

Common to all, as to assay type: physicochemical
Data set [1] can be described thus: Solid form conversion on heating/desolvation via DSC. The conditions noted are these: conversions occurred via DSC, upon heating/desolvation. As for the experimental part: DSC analysis of each sample was performed using a Q100 Differential Scanning Calorimeter (TA Instruments, New Castle, Del., U.S.A.), which uses Thermal Advantage™ version 4.1.0 for operating instrument. In addition, the analysis software used was Universal Analysis 2000 for Windows 2000/XP, version 4.1D; Build 4.1.0.16 (Copyright © 1998-2004 TA Instruments-Water LLC).
For all of the DSC analyses, an aliquot of a sample was weighed into either a standard aluminium pan (Pan part #900786.091; lid part #900779.901) or a hermetic aluminium pan (Pan part #900793.901; lid part #900794.901 (TA Instruments, New Castle Del. USA)). Non-solvated samples were loaded into standard pans and were sealed either by crimping for dry samples or press fitting for wet samples (such as slurries). Solvated samples (including hydrates) were loaded into hermetic pans and hermetically sealed. The sample pan was loaded into the Q100 Differential Scanning Calorimeter, which is equipped with an autosampler, and a thermogram was obtained by individually heating the same using the control software at a rate of 10° C./minute from Tmin (typically 25° C.) to Tmax (typically 275° C.) using an empty aluminium pan as a reference. Dry nitrogen (compressed nitrogen, grade 4.8 (BOC Gases, Murray Hill, N.J. USA)) was used as a sample purge gas and was set at a flow rate of 50 mL/minute. Thermal transitions were viewed and analyzed using the analysis software provided with the instrument.
At least 10 forms were discovered based on distinguished PXRD patterns (all conversions occurred via DSC; such conversions can also occur under ambient conditions at a slower pace).
(In DSC, transitions show as peaks or steps in heat flow.)

The nature of data set [2]: Crystallization solvents list and observations (solubility of the compound in solvents). The conditions noted are these: about 20 mg in 4 ml vial, about 40° C. As for the experimental part:
About 20 mg of (4R)-1-[4-(2-chloro-5-fluorobenzoyl)amino-3-methoxybenzoyl]-1,2,3,5-tetrahydro-spiro[4H-1-benzazepine-4,1′-[2]cyclopentene]-3′-carboxylic acid was transferred into a 4 ml vial. Solvent was added in the vial to make the solution or suspension depending on solubility at about 40° C. on hot plate. The vial was removed from hot plate and kept at room temperature. The caps were put on without sealing. All the vials were placed in the hood for slow evaporation. After the solvent evaporated, the solid was investigated using PXRD, DSC, TGA, and microscope.

Data set [3] in a line: Water slurry study of polymorph stability. As for the experimental part:
Form 6 was crystallized from acetone, butanol, ethanol, isopropyl alcohol, hexane, and water. It melted with a peak at about 203-204° C. and a heat of fusion of about 75-80 J/g.

“Also recorded” adds a separate entry of the source.

Regarding `COc1cc(C(=O)N2CC[C@]3(C=C(C(=O)O)CC3)Cc3ccccc32)ccc1NC(=O)c1cc(F)ccc1Cl` [Form 7, (4R)-1-[4-(2-chloro-5-fluorobenzoyl)amino-3-methoxybenzoyl]-1,2,3,5-tetrahydro-spiro[4H-1-benzazepine-4,1′-[2]cyclopentene]-3′-carboxylic acid], the results for the “Solid form conversion (physical stability)” value in data set [1], in data set [1] (listed as 7) and in data set [1] (listed as form 7) were “converted to form 1; also recorded: ultimately to form 6”, “(solvate converted to form 1)” and “converted to form 1”, respectively.
In the case of `COc1cc(C(=O)N2CC[C@]3(C=C(C(=O)O)CC3)Cc3ccccc32)ccc1NC(=O)c1cc(F)ccc1Cl` [Form 4, (4R)-1-[4-(2-chloro-5-fluorobenzoyl)amino-3-methoxybenzoyl]-1,2,3,5-tetrahydro-spiro[4H-1-benzazepine-4,1′-[2]cyclopentene]-3′-carboxylic acid], the “Solid form conversion (physical stability)” value in data set [1] (listed as 4) is “(solvate converted to an amorphous form)”.
As for `COc1cc(C(=O)N2CC[C@]3(C=C(C(=O)O)CC3)Cc3ccccc32)ccc1NC(=O)c1cc(F)ccc1Cl` [Compound of Formula (I), (4R)-1-[4-(2-chloro-5-fluorobenzoyl)amino-3-methoxybenzoyl]-1,2,3,5-tetrahydro-spiro[4H-1-benzazepine-4,1′-[2]cyclopentene]-3′-carboxylic acid], the “Observation (solubility)” value in data set [2] (1,4-Dioxane) is reported as “Good solubility”; in data set [2] (Acetone), “Good solubility”; in data set [2] (Acetonitrile), “Good solubility”; in data set [2] (Butanol), “Medium solubility”; in data set [2] (Dichloromethane), “Good solubility”; in data set [2] (Ethanol), “Medium solubility”. Besides, the “Observation (solubility)” value in data set [2] (Ethyl acetate) is “Good solubility”; in data set [2] (Hexane) it was “Poor solubility”; in data set [2] (Isopropyl alcohol), “Medium solubility”; in data set [2] (Methanol), “Medium solubility”; in data set [2] (Nitromethane), “Good solubility”; in data set [2] (Toluene), “Solution is not clear”. Also, the “Observation (solubility)” value in data set [2] (Water) is “Poor wetability”. Also, the “Observation (solution or suspension)” value in data set [2] (1,4-Dioxane), in data set [2] (Acetone), in data set [2] (Acetonitrile), in data set [2] (Butanol), in data set [2] (Dichloromethane) and in data set [2] (Ethanol) was “Solution” throughout. Moreover, the “Observation (solution or suspension)” value is reported as “Solution” in data set [2] (Ethyl acetate); “Suspension” in data set [2] (Hexane); “Solution” in data set [2] (Isopropyl alcohol); “Solution” in data set [2] (Methanol); “Solution” in data set [2] (Nitromethane); “Precipitation” in data set [2] (Toluene). For the same molecule, in data set [2] (Water), the “Observation (solution or suspension)” value was “Suspension”.
As to `COc1cc(C(=O)N2CC[C@]3(C=C(C(=O)O)CC3)Cc3ccccc32)ccc1NC(=O)c1cc(F)ccc1Cl` [Form 6, (4R)-1-[4-(2-chloro-5-fluorobenzoyl)amino-3-methoxybenzoyl]-1,2,3,5-tetrahydro-spiro[4H-1-benzazepine-4,1′-[2]cyclopentene]-3′-carboxylic acid], in data set [3] (from highest melting temperature and heat of fusion, confirmed by water slurry study), the “Thermodynamic stability among polymorphs” value was “thermodynamically most stable polymorph”.
As to `COc1cc(C(=O)N2CC[C@]3(C=C(C(=O)O)CC3)Cc3ccccc32)ccc1NC(=O)c1cc(F)ccc1Cl` [Form 1, (4R)-1-[4-(2-chloro-5-fluorobenzoyl)amino-3-methoxybenzoyl]-1,2,3,5-tetrahydro-spiro[4H-1-benzazepine-4,1′-[2]cyclopentene]-3′-carboxylic acid], in data set [3] (equal amount of forms 1, 5 and 6 mixed in water for more than 76 hours), the “Solid form conversion in water slurry” value is “converted to form 6”.
Regarding `COc1cc(C(=O)N2CC[C@]3(C=C(C(=O)O)CC3)Cc3ccccc32)ccc1NC(=O)c1cc(F)ccc1Cl` [Form 8, (4R)-1-[4-(2-chloro-5-fluorobenzoyl)amino-3-methoxybenzoyl]-1,2,3,5-tetrahydro-spiro[4H-1-benzazepine-4,1′-[2]cyclopentene]-3′-carboxylic acid], the “Solid form conversion (physical stability)” value was “converted to form 1” in data set [1], “(solvate converted to form 1)” in data set [1] (listed as 8) and “converted to form 1” in data set [1] (listed as form 8).
With `COc1cc(C(=O)N2CC[C@]3(C=C(C(=O)O)CC3)Cc3ccccc32)ccc1NC(=O)c1cc(F)ccc1Cl` [Form 2, (4R)-1-[4-(2-chloro-5-fluorobenzoyl)amino-3-methoxybenzoyl]-1,2,3,5-tetrahydro-spiro[4H-1-benzazepine-4,1′-[2]cyclopentene]-3′-carboxylic acid], the “Solid form conversion (physical stability)” value in data set [1] (listed as 2) is “(solvate converted to form 6)”.
Regarding `COc1cc(C(=O)N2CC[C@]3(C=C(C(=O)O)CC3)Cc3ccccc32)ccc1NC(=O)c1cc(F)ccc1Cl` [Form 3, (4R)-1-[4-(2-chloro-5-fluorobenzoyl)amino-3-methoxybenzoyl]-1,2,3,5-tetrahydro-spiro[4H-1-benzazepine-4,1′-[2]cyclopentene]-3′-carboxylic acid], the “Solid form conversion (physical stability)” value in data set [1] is “converted to form 5”; in data set [1] (listed as 3), “(solvate converted to form 5)”.
